# Test results from US8143244B2, “Cyclopropyl fused indolobenzazepine HCV NS5B inhibitors” (Bristol-Myers Squibb Company, priority 2009, dated 2012).
# pIC50: −log10 of the molar value.
# Target: T1, HCV NS5B (Hepatitis C virus genotype 1b, UniProt Q9WMX2)
# T1 construct: The protein was expressed with an 18 amino acid C-terminal truncation to enhance the solubility; made in house; host or cells: E. coli BL21(DE3)
# Test: HCV NS5B RdRp enzyme assay
# Assay type: biochemical
# Settings: Table 1; HCV NS5B RdRp genotype 1b
# Experimental: HCV NS5B RdRp cloning, expression, and purification. The cDNA encoding the NS5B protein of HCV, genotype 1b, was cloned into the pET21a expression vector. The protein was expressed with an 18 amino acid C-terminal truncation to enhance the solubility. The E. coli competent cell line BL21(DE3) was used for expression of the protein. Cultures were grown at 37° C. for ˜4 hours until the cultures reached an optical density of 2.0 at 600 nm. The cultures were cooled to 20° C. and induced with 1 mM IPTG. Fresh ampicillin was added to a final concentration of 50 μg/ml and the cells were grown overnight at 20° C.
# Cell pellets (3L) were lysed for purification to yield 15-24 mgs of purified NS5B. The lysis buffer consisted of 20 mM Tris-HCl, pH 7.4, 500 mM NaCl, 0.5% triton X-100, 1 mM DTT, 1 mM EDTA, 20% glycerol, 0.5 mg/ml lysozyme, 10 mM MgCl2, 15 ug/ml deoxyribonuclease I, and Complete TM protease inhibitor tablets (Roche). After addition of the lysis buffer, frozen cell pellets were resuspended using a tissue homogenizer. To reduce the viscosity of the sample, aliquots of the lysate were sonicated on ice using a microtip attached to a Branson sonicator. The sonicated lysate was centrifuged at 100,000×g for 1 hr at 4° C. and filtered through a 0.2 μm filter unit (Corning).
# The protein was purified using three sequential chromatography steps: Heparin sepharose CL-6B, polyU sepharose 4B, and Hitrap SP sepharose (Pharmacia). The chromatography buffers were identical to the lysis buffer but contained no lysozyme, deoxyribonuclease I, MgCl2 or protease inhibitor and the NaCl concentration of the buffer was adjusted according to the requirements for charging the protein onto the column. Each column was eluted with a NaCl gradient which varied in length from 5-50 column volumes depending on the column type. After the final chromatography step, the resulting purity of the enzyme is >90% based on SDS-PAGE analysis. The enzyme was aliquoted and stored at −80° C.
# Standard HCV NS5B RdRp enzyme assay. HCV RdRp genotype 1b assays were run in a final volume of 60 μl in 96 well plates (Costar 3912). The assay buffer is composed of 20 mM Hepes, pH 7.5, 2.5 mM KCl, 2.5 mM MgCl2, 1 mM DTT, 1.6 U RNAse inhibitor (Promega N2515), 0.1 mg/ml BSA (Promega R3961), and 2% glycerol. All compounds were serially diluted (3-fold) in DMSO and diluted further in water such that the final concentration of DMSO in the assay was 2%. HCV RdRp genotype 1b enzyme was used at a final concentration of 28 nM. A polyA template was used at 6 nM, and a biotinylated oligo-dT12 primer was used at 180 nM final concentration. Template was obtained commercially (Amersham 27-4110). Biotinylated primer was prepared by Sigma Genosys. 3H-UTP was used at 0.6 μCi (0.29 μM total UTP). Reactions were initiated by the addition of enzyme, incubated at 30° C. for 60 min, and stopped by adding 25 μl of 50 mM EDTA containing SPA beads (4 μg/μl, Amersham RPNQ 0007). Plates were read on a Packard Top Count NXT after >1 hr incubation at room temperature.
# Modified HCV NS5B RdRp enzyme assay. A modified enzyme assay was performed essentially as described for the standard enzyme assay except for the following: The biotinylated oligo dT12 primer was precaptured on streptavidin-coated SPA beads by mixing primer and beads in assay buffer and incubating at room temperature for one hour. Unbound primer was removed after centrifugation. The primer-bound beads were resuspended in 20 mM Hepes buffer, pH 7.5 and used in the assay at final concentrations of 20 nM primer and 0.67 μg/μl beads. Order of addition in the assay: enzyme (14 nM) was added to diluted compound followed by the addition of a mixture of template (0.2 nM), 3H-UTP (0.6 μCi, 0.29 μM), and primer-bound beads, to initiate the reaction; concentrations given are final. Reactions were allowed to proceed for 4 hours at 30° C.
# IC50 values for compounds were determined using seven different [I]. […]
# T1 sequence (Q9WMX2 2420-2992): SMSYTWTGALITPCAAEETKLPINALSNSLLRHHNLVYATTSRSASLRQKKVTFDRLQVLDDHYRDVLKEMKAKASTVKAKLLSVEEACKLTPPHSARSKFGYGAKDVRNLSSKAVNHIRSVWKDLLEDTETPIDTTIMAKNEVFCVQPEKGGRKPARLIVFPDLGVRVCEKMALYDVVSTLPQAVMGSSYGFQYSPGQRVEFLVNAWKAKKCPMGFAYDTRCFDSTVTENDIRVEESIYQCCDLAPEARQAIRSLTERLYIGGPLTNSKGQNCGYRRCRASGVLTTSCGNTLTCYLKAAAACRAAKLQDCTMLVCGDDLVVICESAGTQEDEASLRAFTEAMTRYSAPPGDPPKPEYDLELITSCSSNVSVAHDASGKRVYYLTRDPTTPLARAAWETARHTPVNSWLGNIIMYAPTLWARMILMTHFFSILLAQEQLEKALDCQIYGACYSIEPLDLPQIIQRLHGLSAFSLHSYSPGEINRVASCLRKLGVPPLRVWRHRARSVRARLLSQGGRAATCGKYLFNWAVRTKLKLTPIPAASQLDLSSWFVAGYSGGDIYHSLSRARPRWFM
row,Structure (SMILES),pIC50
1,COc1ccc2c(c1)C1CC1(C(=O)N1CC34COCC3(CN(C(C)=O)C4)C1)Cn1c-2c(C2CCCCC2)c2ccc(C(=O)NS(=O)(=O)CC(C)C)cc21 (stereo not shown),6.30 to 8.72
2,COc1ccc2c(c1)C=C(C(=O)N1CC34CNCC3(COC4)C1)Cn1c-2c(C2CCCCC2)c2ccc(C(=O)NS(=O)(=O)C3CC3)cc21 (stereo not shown),6.30 to 8.72
3,COc1ccc2c(c1)CC(C(=O)N1CC34CNCC3(COC4)C1)Cn1c-2c(C2CCCCC2)c2ccc(C(=O)NS(=O)(=O)C3CC3)cc21 (stereo not shown),6.30 to 8.72
4,COc1ccc2c(c1)[C@@H]1C[C@]1(C(=O)N1CC34CN(C)CC3(CN(C)C4)C1)Cn1c-2c(C2CCCCC2)c2ccc(C(=O)NS(=O)(=O)C(C)C)cc21 (stereo partly shown),6.30 to 8.72
5,COc1ccc2c(c1)[C@@H]1C[C@]1(C(=O)N1CC34CNCC3(CN(C)C4)C1)Cn1c-2c(C2CCCCC2)c2ccc(C(=O)NS(=O)(=O)C(C)C)cc21 (stereo partly shown),6.30 to 8.72
6,COc1ccc2c(c1)C1CC1(C(=O)N1CC34CNCC3(COC4)C1)Cn1c-2c(C2CCCCC2)c2ccc(C(=O)NS(=O)(=O)N(C)C)cc21 (stereo not shown),6.30 to 8.72
7,COc1ccc2c(c1)CC(C(=O)N1CC34CNCC3(CN(C)C4)C1)Cn1c-2c(C2CCCCC2)c2ccc(C(=O)NS(=O)(=O)C3CC3)cc21 (stereo not shown),6.30 to 8.72
8,COc1ccc2c(c1)[C@@H]1C[C@]1(C(=O)N1CC34COCC3(C1)N(C(C)=O)C4)Cn1c-2c(C2CCCCC2)c2ccc(C(=O)NS(=O)(=O)N(C)C)cc21 (stereo partly shown),6.30 to 8.72
9,COc1ccc2c(c1)C1CC1(C(=O)N1CC34COCC3(CN(C)C4)C1)Cn1c-2c(C2CCCCC2)c2ccc(C(=O)NS(=O)(=O)N(C)C)cc21 (stereo not shown) [drawing 61],6.30 to 8.72
10,C=C(C)S(=O)(=O)NC(=O)c1ccc2c(C3CCCCC3)c3n(c2c1)C[C@@]1(C(=O)N2CC45COCC4(CN(C)C5)C2)C[C@H]1c1cc(OC)ccc1-3 (stereo partly shown),6.30 to 8.72
11,COc1ccc2c(c1)C1CC1(C(=O)N1CC34CNCC3(CN(C)C4)C1)Cn1c-2c(C2CCCCC2)c2ccc(C(=O)NS(=O)(=O)N(C)C)cc21 (stereo not shown),6.30 to 8.72
12,COc1ccc2c(c1)CC(C(=O)N1CC34COCC3(CN(C)C4)C1)Cn1c-2c(C2CCCCC2)c2ccc(C(=O)NS(=O)(=O)C3CC3)cc21 (stereo not shown),6.30 to 8.72
13,COc1ccc2c(c1)C=C(C(=O)N1CC34COCC3(CN(C)C4)C1)Cn1c-2c(C2CCCCC2)c2ccc(C(=O)NS(=O)(=O)C3CC3)cc21 (stereo not shown),6.30 to 8.72
14,COc1ccc2c(c1)CC(C(=O)N1CC34CN(C)CC3(CN(C)C4)C1)Cn1c-2c(C2CCCCC2)c2ccc(C(=O)NS(=O)(=O)N(C)C)cc21 (stereo not shown),6.30 to 8.72
15,COc1ccc2c(c1)[C@@H]1C[C@]1(C(=O)N1CC34COCC3(CN(C)C4)C1)Cn1c-2c(C2CCCCC2)c2ccc(C(=O)NS(=O)(=O)C(C)C)cc21 (stereo partly shown),6.30 to 8.72
16,COc1ccc2c(c1)C1CC1(C(=O)N1CC34CN(C)CC3(CN(C)C4)C1)Cn1c-2c(C2CCCCC2)c2ccc(C(=O)NS(=O)(=O)N(C)C)cc21 (stereo not shown),6.30 to 8.72
17,CCN1CC23COCC2(C1)CN(C(=O)[C@]12C[C@H]1c1cc(OC)ccc1-c1c(C4CCCCC4)c4ccc(C(=O)NS(=O)(=O)C(C)C)cc4n1C2)C3 (stereo partly shown),6.30 to 8.72
18,COc1ccc2c(c1)[C@@H]1C[C@]1(C(=O)N1CC34COCC3(C1)CN(C1CC1)C4)Cn1c-2c(C2CCCCC2)c2ccc(C(=O)NS(=O)(=O)C(C)C)cc21 (stereo partly shown),6.30 to 8.60
19,COc1ccc2c(c1)[C@@H]1C[C@]1(C(=O)N1CC34CNCC3(COC4)C1)Cn1c-2c(C2CCCCC2)c2ccc(C(=O)NS(=O)(=O)C(C)C)cc21 (stereo partly shown),6.30 to 8.72
20,COc1ccc2c(c1)C=C(C(=O)N1CC34CN(C)CC3(CN(C)C4)C1)Cn1c-2c(C2CCCCC2)c2ccc(C(=O)NS(=O)(=O)N(C)C)cc21 (stereo not shown),6.30 to 8.72
21,COc1ccc2c(c1)C=C(C(=O)N1CC34CNCC3(COC4)C1)Cn1c-2c(C2CCCCC2)c2ccc(C(=O)NS(=O)(=O)N(C)C)cc21 (stereo not shown),6.30 to 8.72
22,COc1ccc2c(c1)C=C(C(=O)N1CC34COCC3(CN(C)C4)C1)Cn1c-2c(C2CCCCC2)c2ccc(C(=O)NS(=O)(=O)N(C)C)cc21 (stereo not shown),6.30 to 8.72
23,COc1ccc2c(c1)C=C(C(=O)N1CC34COCC3(C1)N(C(C)=O)C4)Cn1c-2c(C2CCCCC2)c2ccc(C(=O)NS(=O)(=O)N(C)C)cc21 (stereo not shown),6.30 to 8.72
24,COc1ccc2c(c1)[C@@H]1C[C@]1(C(=O)N1CC34COCC3(C1)N(C(C)=O)C4)Cn1c-2c(C2CCCCC2)c2ccc(C(=O)NS(=O)(=O)C(C)C)cc21 (stereo partly shown) [drawing 73],6.30 to 8.72

# Same assay, conditions: Table 2; HCV NS5B RdRp genotype 1b
row,Structure (SMILES),pIC50
1,COc1ccc2c(c1)C1CC1(C(=O)N1CC34COCC3(CN(C)C4)C1)Cn1c-2c(C2CCCCC2)c2ccc(C(=O)NS(=O)(=O)N(C)C)cc21 (stereo not shown) [drawing 106],8.06
2,COc1ccc2c(c1)[C@@H]1C[C@]1(C(=O)N1CC34COCC3(C1)N(C(C)=O)C4)Cn1c-2c(C2CCCCC2)c2ccc(C(=O)NS(=O)(=O)C(C)C)cc21 (stereo partly shown) [drawing 109],8.51
3,COc1ccc2c(c1)C1CC1(C(=O)N1CC34CNCC3(CN(C)C4)C1)Cn1c-2c(C2CCCCC2)c2ccc(C(=O)NS(=O)(=O)C3CC3)cc21 (stereo not shown),8.11
4,COc1ccc2c(c1)[C@@H]1C[C@]1(C(=O)N1CC34COCC3(C1)N(C(C)=O)C4)Cn1c-2c(C2CCCCC2)c2ccc(C(=O)NS(=O)(=O)C(C)C)cc21 (stereo partly shown) [drawing 110],8.62
